# According to patent publication US20090306133A1, “New Acetyl Coenzyme A Carboxylase (ACC) Inhibitors And Uses In Treatments Of Obesity And Diabetes Mellitus - 087” (ASTRAZENECA AB, priority 2007, published 2009):
# pIC50: −log10 of the molar value.
# Key:
# [1] = molecular target: Human recombinant Acetyl-CoA Carboxylase 2 (ACC2) (Homo sapiens, UniProt O00763); assay: Assay Y: ACC2 inhibition, inorganic phosphate (Malachite Green); format: biochemical; conditions: Assay Y: room temperature, 3 hr, 15 min preincubation
# In short: (§1)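 Enzyme preincubated with compound 15 min before substrate addition; reaction run 3 h, then phosphate detected with Malachite Green at 670 nm after 10 min at room temperature. Triplicate 10-point titrations; IC50 by non-linear four-parameter curve fitting.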
# [2] = molecular target: Human recombinant Acetyl-CoA Carboxylase 1 (ACC1) (Homo sapiens, UniProt Q13085); assay: Assay Y: ACC1 inhibition, inorganic phosphate (Malachite Green); format: biochemical; conditions: Assay Y: room temperature, 3 hr, 15 min preincubation
# In short: as §1
# Chain of Human recombinant Acetyl-CoA Carboxylase 2 (ACC2) (O00763 whole entry): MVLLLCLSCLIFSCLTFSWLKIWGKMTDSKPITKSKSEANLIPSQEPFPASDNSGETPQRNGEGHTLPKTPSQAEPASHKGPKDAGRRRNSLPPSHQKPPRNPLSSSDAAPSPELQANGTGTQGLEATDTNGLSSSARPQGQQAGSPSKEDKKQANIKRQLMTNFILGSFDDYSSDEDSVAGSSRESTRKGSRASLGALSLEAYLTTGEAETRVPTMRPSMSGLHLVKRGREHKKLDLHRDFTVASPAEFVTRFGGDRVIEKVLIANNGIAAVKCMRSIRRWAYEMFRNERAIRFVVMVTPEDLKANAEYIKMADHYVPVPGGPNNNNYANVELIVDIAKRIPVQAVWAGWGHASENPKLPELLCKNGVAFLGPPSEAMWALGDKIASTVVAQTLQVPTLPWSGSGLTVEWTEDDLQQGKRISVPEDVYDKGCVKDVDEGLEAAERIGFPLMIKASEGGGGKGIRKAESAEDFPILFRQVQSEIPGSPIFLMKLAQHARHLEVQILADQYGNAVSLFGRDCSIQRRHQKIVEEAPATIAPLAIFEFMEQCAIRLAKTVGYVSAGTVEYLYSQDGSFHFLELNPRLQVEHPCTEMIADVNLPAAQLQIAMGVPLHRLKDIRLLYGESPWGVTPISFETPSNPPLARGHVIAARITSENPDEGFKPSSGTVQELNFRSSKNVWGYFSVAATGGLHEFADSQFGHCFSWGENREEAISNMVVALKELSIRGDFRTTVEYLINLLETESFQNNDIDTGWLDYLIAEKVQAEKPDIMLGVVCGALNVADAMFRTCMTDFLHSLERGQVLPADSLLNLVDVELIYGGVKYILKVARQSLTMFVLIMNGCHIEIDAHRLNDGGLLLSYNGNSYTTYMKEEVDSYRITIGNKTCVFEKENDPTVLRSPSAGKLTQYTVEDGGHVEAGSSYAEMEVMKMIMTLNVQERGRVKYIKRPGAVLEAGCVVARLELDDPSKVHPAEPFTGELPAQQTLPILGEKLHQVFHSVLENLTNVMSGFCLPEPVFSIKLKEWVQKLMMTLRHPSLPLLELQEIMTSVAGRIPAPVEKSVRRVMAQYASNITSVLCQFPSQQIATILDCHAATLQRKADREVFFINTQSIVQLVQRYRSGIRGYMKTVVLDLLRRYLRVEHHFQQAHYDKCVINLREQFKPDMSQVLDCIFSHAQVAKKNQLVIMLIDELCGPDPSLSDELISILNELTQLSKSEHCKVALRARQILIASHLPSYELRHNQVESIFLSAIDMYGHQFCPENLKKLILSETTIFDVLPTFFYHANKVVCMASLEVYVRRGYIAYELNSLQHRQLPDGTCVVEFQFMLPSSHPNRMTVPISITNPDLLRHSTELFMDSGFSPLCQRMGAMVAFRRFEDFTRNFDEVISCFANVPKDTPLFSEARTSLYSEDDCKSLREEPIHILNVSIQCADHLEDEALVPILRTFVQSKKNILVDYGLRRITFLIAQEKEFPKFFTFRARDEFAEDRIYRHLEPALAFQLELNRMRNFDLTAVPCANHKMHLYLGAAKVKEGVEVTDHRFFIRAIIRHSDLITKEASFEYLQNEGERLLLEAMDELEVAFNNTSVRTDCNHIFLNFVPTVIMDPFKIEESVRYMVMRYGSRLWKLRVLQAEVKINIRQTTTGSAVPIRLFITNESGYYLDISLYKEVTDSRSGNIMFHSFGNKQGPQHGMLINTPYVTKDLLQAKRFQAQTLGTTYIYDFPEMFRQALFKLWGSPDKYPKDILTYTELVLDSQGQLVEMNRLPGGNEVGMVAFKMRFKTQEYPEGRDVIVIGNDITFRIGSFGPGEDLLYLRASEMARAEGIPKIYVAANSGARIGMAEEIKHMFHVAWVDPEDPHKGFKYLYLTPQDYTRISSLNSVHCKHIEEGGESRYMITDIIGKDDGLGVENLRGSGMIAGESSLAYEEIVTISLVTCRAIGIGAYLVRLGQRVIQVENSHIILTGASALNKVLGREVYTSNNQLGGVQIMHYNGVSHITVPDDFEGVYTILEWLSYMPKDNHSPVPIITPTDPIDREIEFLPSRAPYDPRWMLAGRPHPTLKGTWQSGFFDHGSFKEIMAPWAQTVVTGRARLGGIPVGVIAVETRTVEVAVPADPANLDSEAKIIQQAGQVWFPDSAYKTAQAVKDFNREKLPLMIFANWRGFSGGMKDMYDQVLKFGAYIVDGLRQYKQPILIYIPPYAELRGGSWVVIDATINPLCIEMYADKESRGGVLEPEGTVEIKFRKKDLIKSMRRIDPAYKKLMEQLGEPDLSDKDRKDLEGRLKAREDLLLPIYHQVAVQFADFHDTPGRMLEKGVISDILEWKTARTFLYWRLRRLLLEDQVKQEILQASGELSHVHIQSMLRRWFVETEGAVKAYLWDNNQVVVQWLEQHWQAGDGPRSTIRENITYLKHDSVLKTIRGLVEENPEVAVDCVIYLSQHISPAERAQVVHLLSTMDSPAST
pIC50 [1],pIC50 [2],SMILES
5.44,5.03,"CC(=O)Nc1nc(C)sc1S(=O)(=O)NC[C@H]1CC[C@H](CNC(=O)OC(C)(C)C)CC1 [Example 77, tert-Butyl {[trans-4-({[(4-acetamido-2-methyl-1,3-thiazol-5-yl)sulfonyl]amino}methyl)-cyclohexyl]methyl}carbamate]"
7.00,6.28,"CNS(=O)(=O)c1ccc(-c2cc(C(=O)NC[C@H]3CC[C@H](CNC(=O)OC(C)(C)C)CC3)c3ccccc3n2)cc1 [Example 134, tert-Butyl {[trans-4-({[(2-{4-[(methylamino)sulfonyl]-phenyl}quinolin-4-yl)carbonyl]amino}methyl)cyclohexyl]methyl}-carbamate]"
6.15,5.42,"NS(=O)(=O)c1ccc(-c2cc(C(=O)NC[C@H]3CC[C@H](CNC(=O)OC4CCOCC4)CC3)c3ccccc3n2)cc1 [Example 138, Tetrahydro-2H-pyran-4-yl[(trans-4-{[({2-[4-(aminosulfonyl)phenyl]-quinolin-4-yl}carbonyl)amino]-methyl}cyclohexyl)-methyl]carbamate]"
5.48,< 4.70,"CC(C)(C)OC(=O)NC[C@H]1CC[C@H](CNS(=O)(=O)c2ccc(-c3ccccc3)cc2)CC1 [Example 67, tert-Butyl [(trans-4-{[(biphenyl-4-ylsulfonyl)amino]methyl}cyclohexyl)methyl]-carbamate]"
5.54,< 4.70,"Cc1noc(C)c1-c1cc(C(=O)NC[C@H]2CC[C@H](CNC(=O)OC(C)(C)C)CC2)c2ccccc2n1 [Example 15, tert-Butyl ({trans-4-[({[2-(3,5-dimethylisoxazol-4-yl)quinolin-4-yl]carbonyl}amino)-methyl]cyclohexyl}methyl)carbamate]"
5.39,5.26,"Cc1cc(C(=O)NC[C@H]2CC[C@H](CNC(=O)OC(C)(C)C)CC2)cc(-c2ccc(CN)cc2)n1 [Example 38, tert-Butyl ({trans-4-[({2-[4-(aminomethyl)phenyl]-6-methylisonicotinoyl}amino)-methyl]cyclohexyl}methyl)carbamate]"
7.40,6.70,"CC(=O)NCc1ccc(-c2cc(C(=O)NC[C@H]3CC[C@H](CNC(=O)OC(C)(C)C)CC3)c3ccccc3n2)cc1 [Example 103, tert-Butyl [(trans-4-{[({2-[4-(acetamidomethyl)phenyl]quinolin-4-yl}carbonyl)-amino]methyl}cyclohexyl)methyl]carbamate]"
5.39,< 4.70,"CCOC(=O)NC[C@H]1CC[C@H](CNC(=O)c2cc(-c3cnccn3)nc3ccccc23)CC1 [Example 26, Ethyl {[trans-4-({[(2-pyrazin-2-ylquinolin-4-yl)carbonyl]amino}methyl)cyclohexyl]-methyl}carbamate]"
6.42,5.57,"COC[C@H](C)OC(=O)NC[C@H]1CC[C@H](CNC(=O)c2cc(-c3ccc(N4CCN(C)CC4)nc3)nc3ccccc23)CC1 (stereo in doubt) [Example 112, (1S)-2-Methoxy-1-methylethyl[(trans-4-{[({2-[6-(4-methylpiperazin-1-yl)pyridin-3-yl]quinolin-4-yl}carbonyl)amino]methyl}cyclohexyl)methyl]carbamate]"
5.61,< 4.70,"CN(C[C@H]1CC[C@H](CNC(=O)OC(C)(C)C)CC1)S(=O)(=O)c1ccc2ccccc2c1 [Example 88, tert-Butyl [(trans-4-{[methyl(2-naphthylsulfonyl)amino]methyl}cyclohexyl)methyl]-carbamate]"
6.19,5.79,"CN1CCN(c2ccc(-c3cc(C(=O)NC[C@H]4CC[C@H](CNC(=O)OCCF)CC4)c4ccccc4n3)cn2)CC1 [Example 118, 2-Fluoroethyl[(trans-4-{[({2-[6-(4-methylpiperazin-1-yl)pyridin-3-yl]quinolin-4-yl}carbonyl)amino]methyl}cyclohexyl)methyl]carbamate]"
5.52,< 4.70,"CC(C)(C)OC(=O)NC[C@H]1CC[C@H](CN(CCc2ccccc2)S(=O)(=O)c2ccc3ccccc3c2)CC1 [Example 80, tert-Butyl [(trans-4-{[(2-naphthylsulfonyl)(2-phenylethyl)amino]methyl}cyclohexyl)-methyl]carbamate]"
5.55,5.34,"CC(C)(C)OC(=O)NC[C@H]1CC[C@H](CNS(=O)(=O)c2cccc(-c3ccccc3)c2)CC1 [Example 63, tert-Butyl [(trans-4-{[(biphenyl-3-ylsulfonyl)amino]methyl}cyclohexyl)methyl]-carbamate]"
5.27,< 4.70,"CCN(C[C@H]1CC[C@H](CNC(=O)OC(C)(C)C)CC1)S(=O)(=O)c1ccc2ccccc2c1 [Example 79, tert-Butyl [(trans-4-{[ethyl(2-naphthylsulfonyl)amino]methyl}cyclohexyl)methyl]-carbamate]"
6.26,6.00,"CCOC(=O)NC[C@H]1CC[C@H](CNC(=O)c2cc(-c3ccc(C(N)=O)cc3)nc3ccccc23)CC1 [Example 61, Ethyl ({trans-4-[({[2-(4-carbamoylphenyl)quinolin-4-yl]carbonyl}amino)methyl]-cyclohexyl}methyl)carbamate]"
6.51,6.00,"COc1cccc(-c2cc(C(=O)NC[C@H]3CC[C@H](CNC(=O)OC(C)(C)C)CC3)c3ccccc3n2)c1 [Example 22, tert-Butyl ({trans-4-[({[2-(3-methoxyphenyl)quinolin-4-yl]carbonyl}amino)-methyl]cyclohexyl}methyl)carbamate]"
6.41,5.88,"CCOc1ccc(-c2cc(C(=O)NC[C@H]3CC[C@H](CNC(=O)OC(C)(C)C)CC3)c3ccccc3n2)cc1 [Example 4, tert-Butyl ({trans-4-[({[2-(4-ethoxyphenyl)quinolin-4-yl]carbonyl}amino)methyl]-cyclohexyl}methyl)carbamate]"
6.48,5.62,"CN1CCN(c2ccc(-c3cc(C(=O)NC[C@H]4CC[C@H](CNC(=O)OC5CCOC5)CC4)c4ccccc4n3)cn2)CC1 (relative stereo) [Example 114, Tetrahydrofuran-3-yl-[(trans-4-{[({2-[6-(4-methylpiperazin-1-yl)pyridin-3-yl]quinolin-4-yl}carbonyl)amino]methyl}cyclohexyl)methyl]carbamate]"
6.15,5.50,"CN1CCN(c2ccc(-c3cc(C(=O)NC[C@H]4CC[C@H](CNC(=O)OCC5CCO5)CC4)c4ccccc4n3)cn2)CC1 (relative stereo) [Example 111, Oxetan-2-ylmethyl-[(trans-4-{[({2-[6-(4-methylpiperazin-1-yl)pyridin-3-yl]quinolin-4-yl}carbonyl)amino]methyl}cyclohexyl)methyl]carbamate]"
6.66,5.40,"CC(C)(C)OC(=O)NC[C@H]1CC[C@H](CNC(=O)c2cc(-c3ccc(N4CCCC4)nc3)nc3ccccc23)CC1 [Example 144, tert-Butyl({trans-4-[({[2-(6-pyrrolidin-1-ylpyridin-3-yl)quinolin-4-yl]carbonyl}amino)methyl]cyclohexyl}methyl)carbamate]"

SMILES,pIC50 [1],pIC50 [2]
"CC(C)(C)OC(=O)NC[C@H]1CC[C@H](CNC(=O)c2cc(-c3cccc(C(=O)O)c3)nc3ccccc23)CC1 [Example 108, 3-(4-{[(trans-4-{[(tert-Butoxycarbonyl)amino]methyl}cyclohexyl)methyl]-carbamoyl}quinolin-2-yl)benzoic Acid]",6.35,5.10
